Source: patent publication USRE48461E1, “Modulation of androgen receptor expression” (Ionis Pharmaceuticals, Inc., priority 2012, dated 2021)

Test: Hematological parameters in cynomolgus monkeys
Details: cynomolgus monkey, 40 mg/kg s.c., day 44

## TTGATTTAATGGTTGC [ISIS 560131] (MOE and (S)-cEt gapmer chemistry, further chemistry not given here)
  tolerability: hematology: well tolerated in terms of the hematology of the monkeys
